Source: article PMC6531917, “A Cell-Permeant Mimetic of NMN Activates SARM1 to Produce Cyclic ADP-Ribose and Induce Non-apoptotic Cell Death” (iScience, 2019)

What was measured:
SARM1 [1] = molecular target: SARM1 (Homo sapiens, UniProt Q6SZW1); assay: biochemical
CD38 [2] = molecular target: T1, CD38 (Homo sapiens, UniProt P28907); assay: inhibition of recombinant CD38 enzyme activity (Figure S5H); format: biochemical
T1 construct: recombinant CD38 (reCD38)
T1 sequence (P28907 1-300): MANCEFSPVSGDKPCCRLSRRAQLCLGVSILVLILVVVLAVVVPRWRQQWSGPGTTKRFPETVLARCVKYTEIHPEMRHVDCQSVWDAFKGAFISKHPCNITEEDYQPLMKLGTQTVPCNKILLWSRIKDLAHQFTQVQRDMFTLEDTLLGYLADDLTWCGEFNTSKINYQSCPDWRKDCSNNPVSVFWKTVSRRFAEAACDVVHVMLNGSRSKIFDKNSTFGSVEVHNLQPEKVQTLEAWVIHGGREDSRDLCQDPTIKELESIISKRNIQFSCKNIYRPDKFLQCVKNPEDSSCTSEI

SARM1 [3] = molecular target: T2, SARM1 (Homo sapiens, UniProt Q6SZW1); assay: εNAD NADase assay and HPLC activity assays of immunopurified SARM1 (activation); dose-response in lysate; format: biochemical
T2 construct: SARM1-FLAG, immunoprecipitated; SARM1-dN (N-terminal mitochondria localization signal truncated)
T2 sequence (Q6SZW1 28-724): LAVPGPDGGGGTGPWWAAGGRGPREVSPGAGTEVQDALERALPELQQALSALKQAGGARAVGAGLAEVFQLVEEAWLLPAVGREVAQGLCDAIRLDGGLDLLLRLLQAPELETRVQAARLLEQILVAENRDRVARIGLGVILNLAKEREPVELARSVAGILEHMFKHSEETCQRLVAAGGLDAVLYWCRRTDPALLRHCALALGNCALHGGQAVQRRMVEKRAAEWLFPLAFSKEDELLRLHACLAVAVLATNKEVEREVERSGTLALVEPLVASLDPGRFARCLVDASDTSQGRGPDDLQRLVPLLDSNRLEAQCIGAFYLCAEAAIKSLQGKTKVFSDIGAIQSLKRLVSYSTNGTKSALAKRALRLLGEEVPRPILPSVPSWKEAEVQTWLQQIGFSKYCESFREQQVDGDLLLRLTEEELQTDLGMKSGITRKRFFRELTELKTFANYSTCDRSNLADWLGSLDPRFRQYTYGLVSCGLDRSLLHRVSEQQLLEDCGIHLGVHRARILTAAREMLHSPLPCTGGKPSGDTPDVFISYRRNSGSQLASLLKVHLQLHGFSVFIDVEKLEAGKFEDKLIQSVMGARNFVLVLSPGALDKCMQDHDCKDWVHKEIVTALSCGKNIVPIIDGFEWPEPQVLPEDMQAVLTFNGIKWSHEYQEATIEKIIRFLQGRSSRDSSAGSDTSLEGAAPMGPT

CD38 [4] = molecular target: T1, CD38; assay: inhibition of recombinant CD38 enzyme activity (Figure S5H); format: biochemical; remark: listed apart in the source

| EC50 (SARM1 [3]) | SMILES | EC50 (SARM1 [1]) | IC50 (CD38 [2]) | inhibition of recombinant CD38 enzyme activity (Figure S5H) (CD38 [4]) |
| --- | --- | --- | --- | --- |
|  | NC(=O)c1ccc[n+]([C@@H]2O[C@H](COP(O)(O)=S)[C@@H](O)[C@@H]2F)c1 [CZ-48] | ~50 µM | ~10 µM |  |
| ~50 µM | NC(=O)c1ccc[n+]([C@@H]2O[C@H](COP(=O)(O)O)[C@@H](O)[C@H]2O)c1 [NMN] |  |  | In contrast to SARM1, recombinant CD38 (reCD38) was inhibited by both NMN (Figure S5H) and CZ-48 |
